The record followed here is PubChem BioAssay AID623938 (Vanderbilt Specialized Chemistry Center, 2012).

This experiment addresses Muscarinic acetylcholine receptor M4 (Homo sapiens) (UniProt P08173). Description: potency of ACh potentiation at hM4 – cell-based, calcium mobilization, human receptor, SAR follow-up (AID 623938). Particulars: hM4 cells, PAM with EC20 ACh; for % ACh max: hits give high values.

Calls of active or inactive are those of the source. How the calls were made is not given here.

Chain of Muscarinic acetylcholine receptor M4 (Homo sapiens) (P08173 whole entry, looked up): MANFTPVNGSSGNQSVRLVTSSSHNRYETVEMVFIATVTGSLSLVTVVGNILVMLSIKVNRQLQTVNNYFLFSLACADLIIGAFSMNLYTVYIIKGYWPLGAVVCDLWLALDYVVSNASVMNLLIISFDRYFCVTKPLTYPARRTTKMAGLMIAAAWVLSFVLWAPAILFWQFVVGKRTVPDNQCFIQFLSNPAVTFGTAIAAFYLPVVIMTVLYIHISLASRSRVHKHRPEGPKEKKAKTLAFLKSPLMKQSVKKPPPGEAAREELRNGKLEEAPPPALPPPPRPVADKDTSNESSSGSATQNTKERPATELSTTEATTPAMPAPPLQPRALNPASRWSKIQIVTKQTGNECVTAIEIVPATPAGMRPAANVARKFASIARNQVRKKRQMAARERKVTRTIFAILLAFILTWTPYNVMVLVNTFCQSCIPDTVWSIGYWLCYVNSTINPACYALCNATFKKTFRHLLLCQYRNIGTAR

On to `Cc1nc2sc(C(=O)NCCc3ccccn3)c(N)c2c(C)c1Cl`, for which the EC50 was 686 nM.

As to `COc1ccc(C)c2sc(C(=O)Nc3ccc(C)nc3)nc12`, the “% ACh max” value was “inactive”.

With `COc1ccc(C)c2sc(NC(=O)NC3CCCC3)nc12`, the EC50 was 3580 nM.

For `COc1ccc(C)c2sc(C(=O)NC3CCCCC3)nc12`, the “% ACh max” value is “inactive”.

`COc1ccc(C)c2sc(NS(=O)(=O)c3ccc(C(F)(F)F)cc3)nc12`: the “% ACh max” value was “inactive”.

Regarding `COc1ccc(C)c2sc(NC(=O)c3ccc(F)cc3)nc12`, the “% ACh max” value was “inactive”.

Take `COc1ccc(C)c2sc(NC(=O)c3ccccn3)nc12`: the “% ACh max” value was “inactive”.

For `O=C(Nc1nc2ccccc2s1)C1CCCCO1` (centres undefined), the “% ACh max” value is “inactive”.

Take `COc1ccc(CNC(=O)c2sc3nc(C)c(Cl)c(C)c3c2N)cc1`: the EC50 is 89 nM.

As for `COc1ccc(C)c2sc(C(=O)NCc3ccncc3)nc12`, the “% ACh max” value is “inactive”.

For the molecule `COc1ccc(C)c2sc(NC(=O)NC3CC3)nc12`, the EC50 is more than 10000 nM.

On to `COc1ccc(C)c2sc(NC(=O)NC3CCC3)nc12`, for which the “% ACh max” value is “inactive”.

As for `COc1ccc(C)c2sc(NS(=O)(=O)c3cnn(C)c3)nc12`, the “% ACh max” value is “inactive”.

In the case of `Cc1nc2sc(C(=O)NC(C)c3ccccn3)c(N)c2c(C)c1Cl` (centres undefined), the EC50 is 1410 nM.

Turning to `Cc1nc2sc(C(=O)NCc3ccncn3)c(N)c2c(C)c1Cl`, the EC50 was 173 nM.

`COCC(=O)Nc1nc2c(OC)ccc(C)c2s1`: the EC50 is more than 10000 nM.

As for `COc1ccc(C)c2sc(NC(=O)Nc3ccncc3)nc12`, the “% ACh max” value was “inactive”.

On to `Cc1nc2sc(C(=O)NCc3ccncc3)c(N)c2c(C)c1Cl`, for which the EC50 is 37 nM.

For the molecule `O=C(Nc1nc2cccnc2s1)c1cnccn1`, the “% ACh max” value is “inactive”.

As to `COc1ccc(C)c2sc(NC(=O)C3CCCCO3)nc12` (centres undefined), the % ACh max was 64.1%.

Turning to `COc1ccc(C)c2sc(NC(C)=O)nc12`, the “% ACh max” value was “inactive”.

On to `COc1ccc(C)c2sc(NC(=O)c3cc(F)cc(F)c3)nc12`, for which the “% ACh max” value is “inactive”.

For the molecule `Cc1cc(CNC(=O)c2sc3nc(C)c(Cl)c(C)c3c2N)ccn1`, the EC50 was 57 nM.

Turning to `Cc1nc2sc(C(=O)NC3CC3)c(N)c2c(C)c1Cl`, the EC50 is 21 nM.

Turning to `COc1ccc(C)c2sc(NC(=O)c3ccc(F)c(F)c3)nc12`, the “% ACh max” value is “inactive”.

On to `Cc1nc2sc(C(=O)NC(C)c3ccncc3)c(N)c2c(C)c1Cl` (centres undefined), for which the EC50 was 600 nM.

In the case of `COc1ccc(C)c2sc(NC(=O)C3CCCC3)nc12`, the EC50 was more than 10000 nM.

Take `Cc1nc2sc(C(=O)NC(C)C)c(N)c2c(C)c1Cl`: the EC50 is 183 nM.

`COc1ccc(C)c2sc(NS(=O)(=O)c3cc(C)ccn3)nc12`: the “% ACh max” value was “inactive”.

As for `COc1ccc(NC(=O)c2sc3nc(C)c(Cl)c(C)c3c2N)cc1`, the outcome is “active; potentiator”.

Regarding `COc1ccc(C)c2sc(NS(=O)(=O)c3cccc(Cl)c3)nc12`, the “% ACh max” value was “inactive”.

Consider `COc1ccc(C)c2sc(NS(=O)(=O)c3ccc(F)cc3F)nc12`, for which the “% ACh max” value is “inactive”.

Regarding `Cc1nc2sc(C(=O)NCc3ncccn3)c(N)c2c(C)c1Cl`, the EC50 is 1070 nM.

Consider `Cc1nc2sc(C(=O)NCc3cccc(F)c3F)c(N)c2c(C)c1Cl`, for which the EC50 is 120 nM.

Regarding `Cc1nc2sc(C(=O)NCc3ccccc3Cl)c(N)c2c(C)c1Cl`, the EC50 is 154 nM.

`Cc1nc2sc(C(=O)NCc3ccnnc3)c(N)c2c(C)c1Cl`: the EC50 is 222 nM.

In the case of `COc1ccc(C)c2sc(NC(=O)C3CCC3)nc12`, the EC50 was more than 10000 nM.

Take `Clc1cccc(Nc2n[nH]c3ccccc23)c1`: the “% ACh max” value was “inactive”.

As for `COc1ccc(C)c2sc(NC(=O)C3=C(C)OCCO3)nc12`, the “% ACh max” value is “inactive”.

For the molecule `COc1ccc(C)c2sc(C(=O)NC3COC3)nc12`, the % ACh max is 36.4%.

`COc1cccc2sc(NC(=O)c3ccncc3)nc12`: the EC50 is 2300 nM.

As to `Cc1nc2sc(C(=O)NC3CCOC3)c(N)c2c(C)c1Cl` (centres undefined), the EC50 was 29 nM.

Take `CCCCC1CC1C(=O)Nc1nc2c(OC)ccc(C)c2s1` (centres undefined): the “% ACh max” value was “inactive”.

With `COc1ccc(C)c2sc(NCC3CC3)nc12`, the “% ACh max” value was “inactive”.

Turning to `Cc1nc2sc(C(=O)Nc3ccccc3N(C)C)c(N)c2c(C)c1Cl`, the result was inactive.

Regarding `Cc1nc2sc(C(=O)NC3CCCCC3)c(N)c2c(C)c1Cl`, the EC50 was 188 nM.

Turning to `COc1ccc(C)c2sc(NC(=O)CC(C)(C)C)nc12`, the “% ACh max” value is “inactive”.

With `COc1ccc(C)c2sc(C(=O)Nc3ccncc3)nc12`, the “% ACh max” value was “inactive”.

Take `COc1ccc(C)c2sc(NC(=O)CCc3ccccc3)nc12`: the “% ACh max” value is “inactive”.

For the molecule `Cc1nc2sc(C(=O)NCC3CCCCC3)c(N)c2c(C)c1Cl`, the EC50 is 1090 nM.

In the case of `COc1ccc(C)c2sc(NC(=O)c3c(F)cccc3F)nc12`, the “% ACh max” value is “inactive”.

`Cc1nc2sc(C(=O)NCc3ccccn3)c(N)c2c(C)c1Cl`: the EC50 was 293 nM.

`Cc1nc2sc(C(=O)NCc3ccc(Cl)cc3)c(N)c2c(C)c1Cl`: the outcome is “active; potentiator”.

As for `O=C(Nc1nc2cccnc2s1)C1CCCC1`, the “% ACh max” value was “inactive”.

For `COc1ccc(C)c2sc(NC(=O)c3ccc(C)cc3)nc12`, the “% ACh max” value is “inactive”.

Regarding `COc1ccc(C)c2sc(NC(=O)C3CCCOC3)nc12` (centres undefined), the EC50 was more than 10000 nM.

With `Cc1nc2sc(C(=O)NC(C)c3cccnc3)c(N)c2c(C)c1Cl` (centres undefined), the EC50 was 601 nM.

With `CCCC(=O)Nc1nc2c(OC)ccc(C)c2s1`, the EC50 was more than 10000 nM.

Regarding `Cc1nc2sc(C(=O)NCc3nccs3)c(N)c2c(C)c1Cl`, the EC50 is 174 nM.

Take `COc1ccc(C)c2sc(NC(=O)c3ccco3)nc12`: the EC50 is 1430 nM.

Turning to `Cc1nc2sc(C(=O)NCCC3CCCN3C)c(N)c2c(C)c1Cl` (centres undefined), the EC50 was 596 nM.

For the molecule `COc1ccc(C)c2sc(NC(=O)N3CCCC3)nc12`, the EC50 was more than 10000 nM.

As for `COc1ccc(C)c2sc(NC(=O)NCc3ccncc3)nc12`, the “% ACh max” value is “inactive”.

As for `Cc1nc2sc(C(=O)NCc3ccccc3)c(N)c2c(C)c1Cl`, the EC50 was 133 nM.

In the case of `COc1ccc(C)c2sc(NC(=O)c3cccnc3)nc12`, the EC50 is 2500 nM.

`O=C(Nc1nc2cccnc2s1)c1cccnn1`: the “% ACh max” value is “inactive”.

On to `Cc1nc2sc(C(=O)NC3CCOCC3)c(N)c2c(C)c1Cl`, for which the EC50 was 220 nM.

`COc1ccc2nc(NC(=O)c3ccncc3)sc2n1`: the “% ACh max” value is “inactive”.

As for `COc1ccc(C)c2sc(NS(=O)(=O)c3ccc4occc4c3)nc12`, the “% ACh max” value is “inactive”.

As to `COc1ccc(C)c2sc(NC(=O)c3ccncc3)nc12`, the EC50 is 1400 nM.

`COc1ccc(C)c2sc(NC(=O)N3CCCCC3)nc12`: the “% ACh max” value is “inactive”.

`Cc1nc2sc(C(=O)NCCc3cccnc3)c(N)c2c(C)c1Cl`: the outcome was inactive.

As to `COc1ccc(C)c2sc(NC(=O)C(C)C)nc12`, the EC50 was more than 10000 nM.

As for `COc1ccc(C)c2sc(NS(=O)(=O)c3cccc(C)c3)nc12`, the “% ACh max” value was “inactive”.

As to `Cc1nc2sc(C(=O)NC(C)(C)C)c(N)c2c(C)c1Cl`, the EC50 is 372 nM.

`Cc1nc2sc(C(=O)NCc3cnccn3)c(N)c2c(C)c1Cl`: the EC50 is 250 nM.

For `Cc1nc2sc(C(=O)NC3COC3)c(N)c2c(C)c1Cl`, the EC50 is 906 nM.

For the molecule `COc1ccc(C)c2sc(NC(=O)C3CCCCC3)nc12`, the EC50 is more than 10000 nM.

Turning to `Cc1nc2sc(C(=O)NCc3ccc(F)c(F)c3)c(N)c2c(C)c1Cl`, the outcome was “active; potentiator”.

Consider `COc1ccc(C)c2sc(C(=O)NC3CCCC3)nc12`, for which the “% ACh max” value is “inactive”.

With `Cc1ccc(CNC(=O)c2sc3nc(C)c(Cl)c(C)c3c2N)cc1`, the EC50 is 132 nM.

On to `COc1ccc(C)c2sc(NC(=O)C3CC3)nc12`, for which the EC50 was more than 10000 nM.

As for `CCOc1ccc(NC(=O)c2sc3nc(C)c(Cl)c(C)c3c2N)cc1`, the result was inactive.

As to `COCCCNC(=O)c1sc2nc(C)c(Cl)c(C)c2c1N`, the EC50 is 425 nM.

In the case of `COc1ccc(C)c2sc(C(=O)NC3CC3)nc12`, the EC50 is more than 10000 nM.

Consider `COc1ccc(C)c2sc(NC(=O)C3=COCCO3)nc12`, for which the EC50 is 1900 nM.

As for `Cc1nc2sc(C(=O)NCCc3ccncc3)c(N)c2c(C)c1Cl`, the EC50 is 211 nM.

`COc1ccc(C)c2sc(NC(=O)c3cnccn3)nc12`: the EC50 is 745 nM.

Turning to `Cc1nc2sc(C(=O)NCc3ccc4c(c3)OCO4)c(N)c2c(C)c1Cl`, the EC50 was 170 nM.

Take `O=C(Nc1nc2cccnc2s1)C1CCC1`: the “% ACh max” value was “inactive”.

Take `COc1ccc(C)c2sc(NC(=O)C3CC3C)nc12` (centres undefined): the concentration for a half-maximal effect (EC50) is more than 10000 nM.

Take `Cc1nc2sc(C(=O)NCc3ccc(C(F)(F)F)cc3)c(N)c2c(C)c1Cl`: the EC50 is 1140 nM.

In the case of `COc1ccc(C)c2sc(NC(=O)c3ccc(F)cc3F)nc12`, the “% ACh max” value is “inactive”.

As to `Cc1nc2sc(C(=O)NCc3cccnc3)c(N)c2c(C)c1Cl`, the EC50 was 328 nM.
